Measured values from ChEMBL document CHEMBL1159389, “Ulongapeptin, a cytotoxic cyclic depsipeptide from a Palauan marine cyanobacterium Lyngbya sp” (J Nat Prod, 2003).
pIC50: −log10 of the molar value.

System: KB
Assay: Cytotoxicity against human KB cells
Type: functional, cell-based

C#CCCC[C@@H]1NC(=O)[C@H](C(C)C)NC(=O)[C@@H](Cc2ccccc2)N(C)C(=O)[C@@H](C(C)C)N(C)C(=O)[C@H](C(C)C)NC(=O)[C@H](C(C)C)N(C)C(=O)[C@H](C)OC(=O)[C@H]1C [ULONGAPEPTIN]
pIC50: 6.20
